Data published in patent publication US12171230B2, “Herbicidal compositions” (Bayer Aktiengesellschaft, priority 2018, dated 2024).

Legend:
Type in all cases: in vivo
Kochia scoparia [1] = assay: Post-emergence herbicidal action against Kochia scoparia
Excerpt: (§1) The following abbreviations are used in the description and the tables that follow: • g of a.i./ha=grams of active substance (active ingredient) (=100% active compound) per hectare; • The sum total of the effects of the individual applications is reported under E^A; • expected values according to Colby are each reported under E^C.
(§2) The rating period is reported in days after application (DAT).

Brachiaria platyphylla = assay: Post-emergence herbicidal action against Brachiaria platyphylla; conditions: for Herbicidal action 21 DAT [%] against Brachiaria platyphylla: post-emergence, block with (B1.14) Tembotrione
Protocol: (§3) When the observed efficacies exceed the formal sum total of the values of the tests with individual applications, they also exceed the expected value according to Colby, which is calculated using the formula below and is likewise regarded as an indication of synergism (cf. S. R. Colby; in Weeds 15 (1967) p. 20 to 22): E^C=A+B−([…])
(§4) Here: • A=efficacy of the active compound (A) in % at an application rate of a g a.i./ha; • B=efficacy of the active compound (B) in % at an application rate of b g a.i./ha; • E^C=expected value of the effect of the combination (A)+(B) in % at the combined application rate a+b g a.i./ha.
(§5) Seeds or rhizome pieces of mono- and dicotyledonous weeds are placed in sandy loam in pots, covered with soil and grown in a greenhouse under good growth conditions (temperature, air humidity, water supply). Three weeks after sowing, the test plants were treated at the three-leaf stage with the compositions according to the invention. The compositions according to the invention formulated as spray powders or as emulsion concentrates were sprayed onto the green plant parts in various dosages with an application rate of 300 to 800 l/ha of water (equivalent). After the test plants have been left to stand in the greenhouse under optimal growth conditions for about 3 to 4 weeks, the action of the preparations is scored visually in comparison to untreated controls. The compositions according to the invention also have good post-emergence herbicidal activity against a broad spectrum of economically important gramineous and broadleaf weeds.

Bidens pilosa = assay: Post-emergence herbicidal action against Bidens pilosa; conditions: for Herbicidal action 21 DAT [%] against Bidens pilosa: block with (B1.14) Tembotrione
How it was run: (§6)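 Greenhouse pot test, sandy loam; weeds from seed or rhizome. Post-emergence spray at three-leaf stage (3 wk after sowing), 300–800 l/ha water, various dosages. Visual % efficacy vs untreated at 3–4 wk; Colby expected value used to flag synergism.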

Pharbitis purpurea = assay: Post-emergence herbicidal action against Pharbitis purpurea
Protocol: as §3, §4, §5

Setaria viridis = assay: Post-emergence herbicidal action against Setaria viridis
Protocol: as §3, §4, §5

Abutilon theophrasti = assay: Post-emergence herbicidal action against Abutilon theophrasti
Excerpt: as §1, §2

Sorghum halepense = assay: Post-emergence herbicidal action against Sorghum halepense; conditions: for Herbicidal action: 21 DAT; for Herbicidal action 21 DAT [%] against Sorghum halepense: post-emergence
Protocol: as §3, §4, §5

Digitaria sanguinalis = assay: Post-emergence herbicidal action against Digitaria sanguinalis
Protocol: as §3, §4, §5

Kochia scoparia [2] = assay: Post-emergence herbicidal action against Kochia scoparia; conditions: 21 DAT
Polygonum convolvulus [3] = assay: Post-emergence herbicidal action against Polygonum convolvulus; conditions: 21 DAT
Eleusine indica [4] = assay: Post-emergence herbicidal action against Eleusine indica; conditions: 21 DAT; 1.7 g a.i./ha
Amaranthus palmeri = assay: Post-emergence herbicidal action against Amaranthus palmeri; conditions: for Herbicidal action: 21 DAT, (res.)
How it was run: as §6

Echinochloa crus-galli = assay: Post-emergence herbicidal action against Echinochloa crus-galli; conditions: (Z3) post-emergence; g of a.i./ha: 270, 30, 5, 5 + 270, 5 + 30
Protocol: as §3, §4, §5

Polygonum convolvulus [5] = assay: Post-emergence herbicidal action against Polygonum convolvulus; conditions: g of a.i./ha: 90, 30, 45, 45 + 90, 45 + 30
Excerpt: as §1, §2

Eleusine indica [6] = assay: Post-emergence herbicidal action against Eleusine indica; conditions: (Z3) post-emergence, g of a.i./ha: 270, 90, 15, 5, 5 + 270, 15 + 90
Excerpt: as §1, §2

Ipomoea hederacea = assay: Post-emergence herbicidal action against Ipomoea hederacea; conditions: 37.5 g of a.i./ha, post-emergence
Protocol: as §3, §4, §5

In the case of `CCc1cccc(C)c1N(C(=O)CCl)[C@@H](C)COC` [(B2.64) S-Metolachlor], the “Herbicidal action 21 DAT against Kochia scoparia” value (Kochia scoparia [1]; 150 g of a.i./ha) is reported as 0%, the “Herbicidal action 21 DAT against Kochia scoparia” value (Kochia scoparia [1]; 450 g of a.i./ha) is reported as 10% and the “Herbicidal action 21 DAT against Brachiaria platyphylla” value (Brachiaria platyphylla; 150 g of a.i./ha) is reported as 10%. For the same compound, the “Herbicidal action 21 DAT against Brachiaria platyphylla” value (Brachiaria platyphylla; 450 g of a.i./ha) was 25%, the “Herbicidal action 21 DAT against Bidens pilosa” value (Bidens pilosa; 150 g of a.i./ha) was 10% and the “Herbicidal action 21 DAT against Bidens pilosa” value (Bidens pilosa; 450 g of a.i./ha) was 20%. The “Herbicidal action 21 DAT against Pharbitis purpurea” value (Pharbitis purpurea; 150 g of a.i./ha) was 0%, the “Herbicidal action 21 DAT against Pharbitis purpurea” value (Pharbitis purpurea; 450 g of a.i./ha) was 10% and the “Herbicidal action 21 DAT against Setaria viridis” value (Setaria viridis; 50 g of a.i./ha) was 30%. For the same compound, the “Herbicidal action 21 DAT against Abutilon theophrasti” value (Abutilon theophrasti; 150 g of a.i./ha) was 0%, the “Herbicidal action 21 DAT against Abutilon theophrasti” value (Abutilon theophrasti; 450 g of a.i./ha) was 10% and the “Herbicidal action 21 DAT against Sorghum halepense” value (Sorghum halepense; 450 g of a.i./ha) was 40%. For the same compound, the “Herbicidal action 21 DAT against Digitaria sanguinalis” value (Digitaria sanguinalis; 50 g of a.i./ha) was 10% and the “Herbicidal action 21 DAT against Digitaria sanguinalis” value (Digitaria sanguinalis; 150 g of a.i./ha) was 40%.
`COC(=O)[C@H]1C[C@@H](NC(=O)C2(OC)CC(c3cc(Cl)cc(Cl)c3)=NO2)CO1` (relative stereo) [Compound A1, methyl rel-(2R,4R)-4-[[3-(3,5-dichlorophenyl)-5-methoxy-4H-isoxazole-5-carbonyl]amino]tetrahydrofuran-2-carboxylate] showed a Herbicidal action (Kochia scoparia [2]; 5 g a.i./ha) of 20%, a Herbicidal action (Kochia scoparia [2]; 15 g a.i./ha) of 45% and a Herbicidal action (Polygonum convolvulus [3]; 5 g a.i./ha) of 85%. It also gave a Herbicidal action (Polygonum convolvulus [3]; 45 g a.i./ha) of 85%, a Herbicidal action (Brachiaria platyphylla; 21 DAT, 1.7 g a.i./ha) of 50% and a Herbicidal action (Bidens pilosa; 21 DAT, 15 g a.i./ha) of 35%. For the same compound, the “Herbicidal action 21 DAT against Bidens pilosa” value (Bidens pilosa; post-emergence, g of a.i./ha: 90, 30, 15, 15 + 90, 15 + 30) was 35%, the Herbicidal action (Eleusine indica [4]) was 20% and the Herbicidal action (Amaranthus palmeri; 5 g a.i./ha) was 10%. For the same compound, the Herbicidal action (Amaranthus palmeri; 15 g a.i./ha) was 10%, the Herbicidal action (Amaranthus palmeri; 45 g a.i./ha) was 40% and the “Herbicidal action 21 DAT against Echinochloa crus-galli” value (Echinochloa crus-galli) was 10%. For the same compound, the “Herbicidal action 21 DAT against Polygonum convolvulus” value (Polygonum convolvulus [5]) was 85%, the “Herbicidal action 21 DAT against Eleusine indica” value (Eleusine indica [6]; 5 g of a.i./ha) was 45% and the “Herbicidal action 21 DAT against Eleusine indica” value (Eleusine indica [6]; 15 g of a.i./ha) was 70%. The Herbicidal action (Setaria viridis; 21 DAT, 1.7 g a.i./ha) was 15%, the Herbicidal action (Sorghum halepense; 1.7 g a.i./ha) was 10% and the Herbicidal action (Sorghum halepense; 15 g a.i./ha) was 35%. For the same compound, the Herbicidal action (Digitaria sanguinalis; 21 DAT, 1.7 g a.i./ha) was 20%.
With `CS(=O)(=O)c1ccc(C(=O)C2C(=O)CCCC2=O)c(Cl)c1COCC(F)(F)F` [(B1.14) Tembotrione, tembotrione, reference compound] the “Herbicidal action 21 DAT [%] against Brachiaria platyphylla” value (Brachiaria platyphylla; 15 g of a.i./ha) was 50%, the “Herbicidal action 21 DAT [%] against Brachiaria platyphylla” value (Brachiaria platyphylla; 45 g of a.i./ha) was 50% and the “Herbicidal action 21 DAT [%] against Bidens pilosa” value (Bidens pilosa; 5 g of a.i./ha, post-emergence) was 10%. The “Herbicidal action 21 DAT [%] against Bidens pilosa” value (Bidens pilosa; 15 g of a.i./ha, post-emergence) was 25%, the “Herbicidal action 21 DAT [%] against Bidens pilosa” value (Bidens pilosa; 45 g of a.i./ha, post-emergence) was 25% and the “Herbicidal action 37 DAT [%] against Ipomoea hederacea” value (Ipomoea hederacea) was 0%. The pest or weed control at 5 g/ha (Amaranthus palmeri; Amaranthus palmeri, post-emergence, 504 h, 5 g of a.i./ha, post-emergence, block with (B1.14) Tembotrione, read-out: Herbicidal action 21 DAT [%] against Amaranthus palmeri) was 10%, the pest or weed control at 15 g/ha (Amaranthus palmeri; Amaranthus palmeri, post-emergence, 504 h, 15 g of a.i./ha, post-emergence, block with (B1.14) Tembotrione, read-out: Herbicidal action 21 DAT [%] against Amaranthus palmeri) was 20% and the “Herbicidal action 21 DAT [%] against Setaria viridis” value (Setaria viridis; 5 g of a.i./ha, post-emergence) was 10%. For the same compound, the “Herbicidal action 21 DAT [%] against Sorghum halepense” value (Sorghum halepense; 5 g of a.i./ha) was 30% and the “Herbicidal action 21 DAT [%] against Sorghum halepense” value (Sorghum halepense; 15 g of a.i./ha) was 50%.
